This is an account of results in patent US11471458B2, “Diacylglycerol acyl transferase 2 inhibitor” (Pfizer Inc., priority 2019, dated 2022).

The nature of data set [1]: High throughput determination of intrinsic clearance in human hepatocytes. Type of data set: in vitro ADME. The note with it: human, pooled cryopreserved human hepatocytes (10 donors), high throughput human hepatocyte assay; 0.5 million cells/mL, 1 μM test compound, 37° C.; mean +/− Std Dev; read-out: CLint (μL/min/10^6 cells) (+/− Std Dev). As to the method: The incubation was carried out at 37° C. […] The samples were centrifuged (Eppendorf, Hauppauge, N.Y.) at 3000 rpm for 5 min at 4° C.

In the next data set the target is human DGAT2 (hDGAT2) (Homo sapiens (Human), UniProt Q96PD7). Nature of the data set: In vitro DGAT2 assay, determination of IC50 values for DGAT2 inhibitors. Type of data set: biochemical. The settings on record: hDGAT2 membrane fraction; geometric mean. As to the method: Recombinant baculovirus for the FLAG-tagged hDGAT2 was generated in SF9 insect cells using Bac-to-Bac baculovirus expression system (Invitrogen) according to the manufacturer's protocol. For the expression of hDGAT2, SF9 cells (20 L) grown in Sf900II media were infected with hDGAT2 baculovirus at a multiplicity of infection of 1 in a Wave Bioreactor System 20/50P wave bag (GE Healthcare). After 40 hours of infection, the cells were then harvested by centrifugation at 5,000×g. The cell pellets were washed by resuspending in phosphate buffered saline (PBS) and collected by centrifugation at 5,000×g. The cell paste was flash frozen in liquid N2 and stored at −80° C. until needed. All operations below were at 4° C. unless otherwise noted. The cells were resuspended in lysis buffer (50 mM Tris-HCl, pH 8.0, 250 mM sucrose) including 1 mM ethylenediaminetetraacetic acid (EDTA) and the complete protease inhibitor cocktail (Roche Diagnostics) at a ratio of 3 mL buffer per 1 g cell paste. The cells were lysed by dounce homogenizer. The cell debris was removed by centrifugation at 1,000×g for 20 min, and the supernatant was centrifuged at 100,000×g for 1 hour. The resulting pellet was rinsed three times by filling ultracentrifuge tubes to the top with ice cold PBS before decanting. The washed pellet was resuspended with gentle stirring for 1 hour in lysis buffer containing 8 mM 3-[(3-cholamidopropyl)dimethylammonio]-1-propanesulfonate (CHAPS) at a ratio of 1 mL buffer per 1 g of original cell paste and centrifuged again at 100,000×g for 1 hour. The resulting supernatant was aliquotted, flash frozen in liquid N2, and stored at −80° C. until use.
Chain of human DGAT2 (hDGAT2) (Q96PD7 whole entry): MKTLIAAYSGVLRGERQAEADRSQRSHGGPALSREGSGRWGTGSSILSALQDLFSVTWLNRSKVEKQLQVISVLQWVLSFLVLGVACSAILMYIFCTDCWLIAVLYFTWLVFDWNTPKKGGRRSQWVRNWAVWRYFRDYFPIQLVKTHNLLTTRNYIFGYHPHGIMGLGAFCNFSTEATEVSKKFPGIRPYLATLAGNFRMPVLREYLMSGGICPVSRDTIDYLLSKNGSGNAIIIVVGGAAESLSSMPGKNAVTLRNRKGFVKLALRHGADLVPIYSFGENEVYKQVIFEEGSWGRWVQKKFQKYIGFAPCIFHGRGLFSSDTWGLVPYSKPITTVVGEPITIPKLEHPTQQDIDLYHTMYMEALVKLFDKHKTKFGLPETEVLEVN
To 1 μL of compounds dissolved in 100% DMSO and spotted at the bottom of each well, 5 μL of 0.04% bovine serum albumin (BSA) (fatty acid free, Sigma Aldrich) was added and the mixture was incubated at room temperature for 15 minutes. hDGAT2 membrane fractions were diluted in 100 mM Hepes-NaOH, pH 7.4, 20 mM MgCl2 containing 200 nM methyl arachidonyl fluorophosphonate (Cayman Chemical; dried from ethyl acetate stock solution under argon gas and dissolved in DMSO as 5 mM stock). 10 μL of this enzyme working solution was added to the plates and incubation continued for 2 hours at room temperature. […] Plates were centrifuged at 2,000×g for 1 minute in an Allegra 6R Centrifuge (Beckman Coulter) and then were sealed again with fresh covers before reading in a 1450 Microbeta Wallac Trilux Scintillation Counter (Perkin Elmer). DGAT2 activity was measured by quantifying the generated product [^14C]tridecanoylglycerol in the upper organic phase. […]

The nature of data set [2]: Intrinsic clearance in human liver microsomes. The settings on record: human, pooled human liver microsomes (50 donors), pH 7.4, human liver microsome assay; 1 μM test compound, 0.806 mg/mL protein, NADPH, pH 7.4, 37° C.; mean +/− STD Dev; read-out: CLint (μL/min/mg) (+/− STD Dev). Format: in vitro ADME. The procedure: The incubations were conducted at 37° C. […] (Sorvall RC 3C Plus, Thermo Scientific, Waltham, Mass.).

Data set [3] can be described thus: Determination of pKa (capillary electrophoresis, Analiza, Inc.). Format: physicochemical. The settings on record: mean, read-out: Basic pKa (most basic pKa).
Data set [4] is described as follows: Thermodynamic solubility in various biorelevant media. The note with it: crystalline solid; for solubility at 25 h: 25 °C, thermodynamic from solid. Type of data set: physicochemical. As to the method: The solubility of active pharmaceutical ingredients is an important characteristic in determining biological performance and ease of formulation during drug development, with high solubility being preferred (Klein, S. 2010, The AAPS Journal, 12, 397-406; Di, L., et al 2012, Drug Disc. Today, 17. 486-495). A test sample of crystalline solid (˜7 mg) was combined in a vial with 1 mL of the relevant buffer solution and the mixture vortexed to combine. If the solid dissolved completely, additional solid was added with vortexing until a saturated solution was obtained. The saturated solution/solid mixture was capped and subjected to temperature cycling as follows: 1 min at 25° C., 8 h at 40° C., 5 h at 15° C. and 12 h at 25° C. The mixture was filtered in a centrifugal filtration device (0.22 μm PVDF filter, MilliporeSigma, Milwaukee, Wis.) at 13,000 rpm and the concentration of the test compound in the filtrate was determined by HPLC/UPLC with reference to a three point standard curve. Phosphate buffered saline (PBS, pH 6.8, 50 mM phosphate buffer, 250 mM NaCl). Simulated gastric fluid (SGN pH 1.2, USP recipe). Fasted state simulated intestinal fluid (FaSSIF, 3 mM sodium taurocholate, 0.75 mM phospholipid from soybean lecithin, 50 mM phosphate buffer, ionic strength adjusted to 250 mM with NaCl, pH 6.8) and fed state simulated intestinal fluid (FeSSIF, 15 mM sodium taurocholate, 3.75 mM phospholipid from soybean lecithin, 144 mM acetic acid, 50 mM phosphate buffer, ionic strength adjusted to 250 mM with NaCl, pH 6.8).

Data set [5] is described as follows: Intrinsic clearance in human hepatocytes (relay method). Type of data set: in vitro ADME. The settings on record: human, cryopreserved human hepatocytes (suspension, relay method), 20 h total incubation, mean +/− standard deviation, read-out: CLint (+/− Std Dev), relay hepatocyte assay. As to the method: For intrinsic clearance (CLint) measurement, hepatocyte relay method was used (Di, L., et al. 2012, Drug Metab. Dispos., 40, 1860-1865 and Di, L., et al. 2013, Drug Metab. Dispos., 41, 2018-2023). Cryopreserved human hepatocytes (Lot DCM from BioreclamationlVT) were used. Upon thawing, the hepatocytes were resuspended in Williams' medium E (custom formula number 91-5233EA; Gibco, Grand Island, N.Y.) supplemented with Hepes and Na2CO3. […] The plates were incubated at 37° C. with 95% air/5% CO2, 75% relative humidity for 4 h at 150 rpm in a humidified incubator. At time 0 and 4 h, 25 μL of hepatocyte suspension was removed from the incubation and added to 50 μL of ice-cold acetonitrile (containing metoprolol, indomethacin, and terfenadine as internal standards) to quench the reaction. The samples were centrifuged (Eppendorf, Hauppauge, N.Y.) at 3000 rpm (1439×g) for 10 min at room temperature, and 50 μL of supernatant was transferred to a clean plate, dried completely, and reconstituted before liquid chromatography/tandem mass spectrometry (LC-MS/MS) analysis. The remaining hepatocyte suspensions in the incubation plate were centrifuged (3000 rpm, 1439×g, 10 min, room temperature). The supernatant of 300 μL was transferred to a clean 24-well plate and stored at −80° C. until the next relay experiment. For the second relay experiment, the supernatant plates were warmed first to room temperature for 30 minutes, then to 37° C. for 30 min, and hepatocytes were added to the samples to give a final cell density of 0.5 million cells/mL. The plates were incubated at 37° C. for 4 h, sampled, and processed as described above. Five relays were performed to give a total incubation time of 20 h, with sampling points at (0, 4, 8, 12, 16 and 20 h). The concentrations of test compound determined at each time point by the LC-MS/MS analysis were used to calculate the intrinsic clearance.

≈ marks a conversion by molar mass, not a printed value. Where a name gives a salt, the structure may show the parent alone.

A word on the IC50: it is the concentration that inhibits the measured activity by half. Higher therefore signals weaker potency. As to `CCOc1cc(F)cnc1Oc1cncc(-c2ncc(C(=O)N[C@H]3CCOC3)cn2)c1` [WO2018033832 Ex. 8], the hepatocyte CLint at 1 μM in data set [1] was 9.3 µL/min/1e6 cells. At human DGAT2 (hDGAT2), the IC50 was determined as 3.3 nM. In data set [2], the microsomal CLint at 1 μM was less than 9.6 µL/min/mg.
For `CCOc1cccnc1Oc1cncc(-c2ncc(C(=O)NC3CCS(=O)(=O)C3)cn2)c1` (stereo not shown) [WO2018033832 Ex. 3.3], the hepatocyte CLint at 1 μM in data set [1] was determined as 5.1 µL/min/1e6 cells. Further, at human DGAT2 (hDGAT2), the IC50 worked out at 200 nM. In addition, the microsomal CLint at 1 μM in data set [2] is less than 8 µL/min/mg.
A word on the pKa: it is the pH at which an ionisable group is half protonated. For the compound `CCOc1cc(F)cnc1Oc1cncc(-c2ncc(C(=O)N[C@@H]3CNCC[C@@H]3F)cn2)c1` [Example 1, 2-{5-[(3-Ethoxy-5-fluoropyridin-2-yl)oxy]pyridin-3-yl}-N-[(3R,4S)-4-fluoropiperidin-3-yl]pyrimidine-5-carboxamide, bis(trifluoroacetate) Salt], the hepatocyte CLint at 1 μM in data set [1] was less than 2.7 µL/min/1e6 cells. For the same compound, the pKa in data set [3] was 7.7. Besides, the microsomal CLint at 1 μM in data set [2] was less than 7 µL/min/mg.
The term Solubility denotes how much of the substance goes into solution per volume. High values mean much dissolved substance, low ones little dissolved substance. In the case of `CCOc1cccnc1Oc1cncc(-c2ncc(C(=O)N[C@H]3CCOC3)cn2)c1` [WO2018033832 Ex. 1, Form 2], the Solubility was determined as 93 µg/mL (≈ 228 µM) in data set [4] (FaSSIF pH 6.8) and 60 µg/mL (≈ 147 µM) in data set [4] (PBS, pH 6.8).
With `CCOc1cccnc1Oc1cncc(-c2ncc(C(=O)NC3(C)CCS(=O)(=O)C3)cn2)c1` (stereo not shown) [WO2018033832 Ex. 3.1], in data set [1], the hepatocyte CLint at 1 μM was 9.3 µL/min/1e6 cells. The midpoint of inhibition against human DGAT2 (hDGAT2), the IC50, lay at 13 nM. For the same compound, in data set [2], the microsomal CLint at 1 μM is 30 µL/min/mg.
With `CCOc1cccnc1Oc1cncc(-c2ncc(C(=O)NC3(CO)CCOC3)cn2)c1` (single isomer, unassigned) [WO2018033832 Ex. 6a], the hepatocyte CLint at 1 μM in data set [5] is 3.2 µL/min/1e6 cells; in data set [1], less than 3.8 µL/min/1e6 cells. For the same compound, in data set [3], the pKa worked out at 2.3. Besides, in data set [2], the microsomal CLint at 1 μM was found to be 13 µL/min/mg.
As usually defined, the solubility is how much of the substance goes into solution per volume. Low readings indicate little dissolved substance, high ones much dissolved substance. `CCOc1cccnc1Oc1cncc(-c2ncc(C(=O)N[C@H]3CCOC3)cn2)c1` [WO2018033832 Ex. 1, Form 1] displayed a Solubility in data set [4] (SGN pH 1.2 (simulated gastric fluid)) of 78 µg/mL (≈ 191 µM). For the same compound, the solubility at 25 h is 69 µg/mL (≈ 169 µM) in data set [4] (fasted state simulated intestinal fluid (FaSSIF), pH 6.8, fassif, FaSSIF pH 6.8) and 43 µg/mL (≈ 106 µM) in data set [4] (phosphate buffered saline, pH 6.8, aqueous buffer, PBS, pH 6.8).
For the compound `CCOc1cccnc1Oc1cncc(-c2ncc(C(=O)N[C@H]3CCOC3)cn2)c1` [WO2018033832 Ex. 1], the hepatocyte CLint at 1 μM is 3.9 µL/min/1e6 cells in data set [5] and less than 3.8 µL/min/1e6 cells in data set [1]. In addition, the pKa in data set [3] came out at 2.4. In data set [2], the microsomal CLint at 1 μM came out at 11 µL/min/mg.
Turning to `CCOc1cccnc1Oc1cncc(-c2ncc(C(=O)N[C@H]3CCC(C(F)(F)F)NC3)cn2)c1` (mixture of isomers) [Example 8, rac-2-{5-[(3-ethoxypyridin-2-yl)oxy]pyridin-3-yl}-N-[(3R,6S)-6-(trifluoromethyl)piperidin-3-yl]pyrimidine-5-carboxamide or rac-2-{5-[(3-ethoxypyridin-2-yl)oxy]pyridin-3-yl}-N-[(3R,6R)-6-(trifluoromethyl)piperidin-3-yl]pyrimidine-5-carboxamide], the hepatocyte CLint at 1 μM in data set [1] turned out to be 12 µL/min/1e6 cells. For the same compound, the microsomal CLint at 1 μM in data set [2] was less than 14 µL/min/mg.
For the compound `CCOc1cccnc1Oc1cncc(-c2ncc(C(=O)N[C@@H]3CCOC3)cn2)c1` [WO2018033832 Ex. 2], the results for the hepatocyte CLint at 1 μM in data set [5] and in data set [1] were 4.9 µL/min/1e6 cells and 4.7 µL/min/1e6 cells, respectively. For the same compound, the pKa in data set [3] amounted to 2.5. Also, in data set [2], the microsomal CLint at 1 μM stood at 17 µL/min/mg.
